Test results from ChEMBL document CHEMBL3885861, “Open TG-GATES”.

Species: Rattus norvegicus
Experiment: Open TG-GATES - Regimen: Single
Format: toxicity, organism-based, Sprague-Dawley
Design: regimen Single, gender Male, age 6 weeks
Conditions: in vivo, po, route gavage; for APTT / Bas / Eos / Fbg / Hb / Ht / Lym / MCH / MCHC / MCV / Mono / Neu / Plat / RBC / Ret / WBC: tissue Blood; for KIDNEY_L / KIDNEY_R / KIDNEY_TOTAL: tissue Kidney; for LIVER: tissue Liver; for ALP / ALT / AST / BUN / CRE / Ca / Cl / DBIL / GLC / IP / K / LDH / Na / PL / RALB / TBIL / TC / TG / TP / gamma-GTP: tissue Plasma
[1] = 1000 mg/kg, 3 h, dose level Middle
[2] = 1000 mg/kg, 6 h, dose level Middle
[3] = 1000 mg/kg, 9 h, dose level Middle
[4] = 1000 mg/kg, 24 h, dose level Middle
[5] = 2000 mg/kg, 3 h, dose level High
[6] = 2000 mg/kg, 6 h, dose level High
[7] = 2000 mg/kg, 9 h, dose level High
[8] = 2000 mg/kg, 24 h, dose level High

## CC(=O)Oc1ccccc1C(=O)O [ASPIRIN]
[1]
  TERMINAL_BW: 217.1 g
  APTT: 19 s
  Bas: 0%
  Eos: 1%
  Fbg: 217.4 mg/dL
  Hb: 13.6 g/dL
  Ht: 37.9%
  Lym: 69.4%
  MCH: 21.9 pg
  MCHC: 35.9%
  MCV: 60.8 fL
  Mono: 2.8%
  Neu: 25.4%
  Plat: 121 x10_4/uL
  RBC: 624.8 x10_4/ul
  Ret: 8%
  WBC: 72.1 x10_2/uL
  KIDNEY_L: 0.9 g
  KIDNEY_R: 1 g
  KIDNEY_TOTAL: 1.9 g
  LIVER: 8.8 g
  ALP: 835 IU/L
  ALT: 44.4 IU/L
  AST: 79 IU/L
  BUN: 15.8 mg/dL
  CRE: 0.4 mg/dL
  Ca: 8.7 mg/dL
  Cl: 104 meq/L
  DBIL: 0.06 mg/dL
  GLC: 203.8 mg/dL
  IP: 8.3 mg/dL
  K: 3.4 meq/L
  LDH: 205.8 IU/L
  Na: 141 meq/L
  PL: 88.8 mg/dL
  RALB: 3.4 g/dL
  TBIL: 0.1 mg/dL
  TC: 54.6 mg/dL
  TG: 26.2 mg/dL
  TP: 5.5 g/dL
  gamma-GTP: 1 IU/L
[2]
  TERMINAL_BW: 218.6 g
  APTT: 19.9 s
  Bas: 0%
  Eos: 0.6%
  Fbg: 233.4 mg/dL
  Hb: 13.7 g/dL
  Ht: 37.9%
  Lym: 66%
  MCH: 21.5 pg
  MCHC: 36.2%
  MCV: 59.5 fL
  Mono: 3.4%
  Neu: 29%
  Plat: 132.5 x10_4/uL
  RBC: 637.2 x10_4/ul
  Ret: 7.9%
  WBC: 97.1 x10_2/uL
  KIDNEY_L: 1 g
  KIDNEY_R: 0.9 g
  KIDNEY_TOTAL: 1.9 g
  LIVER: 8.5 g
  ALP: 820.8 IU/L
  ALT: 35.4 IU/L
  AST: 78.2 IU/L
  BUN: 14.8 mg/dL
  CRE: 0.4 mg/dL
  Ca: 8.3 mg/dL
  Cl: 104.2 meq/L
  DBIL: 0.056 mg/dL
  GLC: 209.4 mg/dL
  IP: 8.1 mg/dL
  K: 3.3 meq/L
  LDH: 236.6 IU/L
  Na: 140.2 meq/L
  PL: 108 mg/dL
  RALB: 3.6 g/dL
  TBIL: 0.098 mg/dL
  TC: 68.6 mg/dL
  TG: 16.8 mg/dL
  TP: 5.7 g/dL
  gamma-GTP: 1 IU/L
[3]
  TERMINAL_BW: 217.1 g
  APTT: 21.6 s
  Bas: 0%
  Eos: 1%
  Fbg: 232.4 mg/dL
  Hb: 13.7 g/dL
  Ht: 38.1%
  Lym: 69.4%
  MCH: 21.4 pg
  MCHC: 35.8%
  MCV: 59.7 fL
  Mono: 2.4%
  Neu: 27%
  Plat: 128.3 x10_4/uL
  RBC: 638.6 x10_4/ul
  Ret: 7.8%
  WBC: 93.3 x10_2/uL
  KIDNEY_L: 1 g
  KIDNEY_R: 0.9 g
  KIDNEY_TOTAL: 1.9 g
  LIVER: 7.5 g
  ALP: 903.8 IU/L
  ALT: 33.2 IU/L
  AST: 79.8 IU/L
  BUN: 13.2 mg/dL
  CRE: 0.4 mg/dL
  Ca: 8.5 mg/dL
  Cl: 106.4 meq/L
  DBIL: 0.05 mg/dL
  GLC: 202.4 mg/dL
  IP: 7.7 mg/dL
  K: 3.2 meq/L
  LDH: 227.2 IU/L
  Na: 140.6 meq/L
  PL: 102.4 mg/dL
  RALB: 3.5 g/dL
  TBIL: 0.098 mg/dL
  TC: 62.8 mg/dL
  TG: 9.2 mg/dL
  TP: 5.5 g/dL
  gamma-GTP: 1.2 IU/L
[4]
  TERMINAL_BW: 217 g
  APTT: 29.4 s
  Bas: 0.4%
  Eos: 1%
  Fbg: 225 mg/dL
  Hb: 14.4 g/dL
  Ht: 39.3%
  Lym: 72%
  MCH: 22.1 pg
  MCHC: 36.6%
  MCV: 60.4 fL
  Mono: 2.2%
  Neu: 24.2%
  Plat: 131.6 x10_4/uL
  RBC: 650.8 x10_4/ul
  Ret: 7.1%
  WBC: 89.6 x10_2/uL
  KIDNEY_L: 0.9 g
  KIDNEY_R: 0.9 g
  KIDNEY_TOTAL: 1.9 g
  LIVER: 8.1 g
  ALP: 933.8 IU/L
  ALT: 38 IU/L
  AST: 110 IU/L
  BUN: 14.8 mg/dL
  CRE: 0.4 mg/dL
  Ca: 8.7 mg/dL
  Cl: 105.6 meq/L
  DBIL: 0.052 mg/dL
  GLC: 214 mg/dL
  IP: 7.3 mg/dL
  K: 3.5 meq/L
  LDH: 227.6 IU/L
  Na: 140.8 meq/L
  PL: 75.4 mg/dL
  RALB: 3.5 g/dL
  TBIL: 0.1 mg/dL
  TC: 40.2 mg/dL
  TG: 23.4 mg/dL
  TP: 5.7 g/dL
  gamma-GTP: 1.6 IU/L
[5]
  TERMINAL_BW: 220 g
  APTT: 19.5 s
  Bas: 0%
  Eos: 1.2%
  Fbg: 224.8 mg/dL
  Hb: 13.7 g/dL
  Ht: 37.7%
  Lym: 62.2%
  MCH: 21.9 pg
  MCHC: 36.3%
  MCV: 60.4 fL
  Mono: 4.6%
  Neu: 30.4%
  Plat: 124.1 x10_4/uL
  RBC: 625.8 x10_4/ul
  Ret: 8.1%
  WBC: 71.4 x10_2/uL
  KIDNEY_L: 1 g
  KIDNEY_R: 1 g
  KIDNEY_TOTAL: 1.9 g
  LIVER: 8.9 g
  ALP: 991.6 IU/L
  ALT: 41.4 IU/L
  AST: 86.6 IU/L
  BUN: 15.6 mg/dL
  CRE: 0.4 mg/dL
  Ca: 8.3 mg/dL
  Cl: 103.6 meq/L
  DBIL: 0.06 mg/dL
  GLC: 200 mg/dL
  IP: 9 mg/dL
  K: 3.4 meq/L
  LDH: 248.4 IU/L
  Na: 141 meq/L
  PL: 96.4 mg/dL
  RALB: 3.5 g/dL
  TBIL: 0.1 mg/dL
  TC: 62 mg/dL
  TG: 24 mg/dL
  TP: 5.8 g/dL
  gamma-GTP: 1.4 IU/L
[6]
  TERMINAL_BW: 217 g
  APTT: 20.8 s
  Bas: 0%
  Eos: 0.8%
  Fbg: 225.6 mg/dL
  Hb: 13.7 g/dL
  Ht: 37.8%
  Lym: 63.8%
  MCH: 22.1 pg
  MCHC: 36.3%
  MCV: 60.8 fL
  Mono: 3%
  Neu: 31.6%
  Plat: 118.3 x10_4/uL
  RBC: 622 x10_4/ul
  Ret: 8.3%
  WBC: 91.9 x10_2/uL
  KIDNEY_L: 1 g
  KIDNEY_R: 1 g
  KIDNEY_TOTAL: 2 g
  LIVER: 8.3 g
  ALP: 843.8 IU/L
  ALT: 35.4 IU/L
  AST: 79 IU/L
  BUN: 17.8 mg/dL
  CRE: 0.4 mg/dL
  Ca: 8.1 mg/dL
  Cl: 104.2 meq/L
  DBIL: 0.056 mg/dL
  GLC: 221.4 mg/dL
  IP: 7.9 mg/dL
  K: 3.2 meq/L
  LDH: 233.4 IU/L
  Na: 140.4 meq/L
  PL: 103.4 mg/dL
  RALB: 3.5 g/dL
  TBIL: 0.1 mg/dL
  TC: 67.8 mg/dL
  TG: 12.2 mg/dL
  TP: 5.7 g/dL
  gamma-GTP: 1.2 IU/L
[7]
  TERMINAL_BW: 217.3 g
  APTT: 22.1 s
  Bas: 0%
  Eos: 0.8%
  Fbg: 224.8 mg/dL
  Hb: 13.9 g/dL
  Ht: 38.3%
  Lym: 65%
  MCH: 21.8 pg
  MCHC: 36.3%
  MCV: 60.1 fL
  Mono: 2.2%
  Neu: 31.2%
  Plat: 127.8 x10_4/uL
  RBC: 636.2 x10_4/ul
  Ret: 8%
  WBC: 88.7 x10_2/uL
  KIDNEY_L: 0.9 g
  KIDNEY_R: 0.9 g
  KIDNEY_TOTAL: 1.8 g
  LIVER: 7.9 g
  ALP: 712.8 IU/L
  ALT: 34.4 IU/L
  AST: 77.2 IU/L
  BUN: 15 mg/dL
  CRE: 0.4 mg/dL
  Ca: 8 mg/dL
  Cl: 105.2 meq/L
  DBIL: 0.048 mg/dL
  GLC: 211.4 mg/dL
  IP: 7.6 mg/dL
  K: 3.3 meq/L
  LDH: 212.4 IU/L
  Na: 139.4 meq/L
  PL: 97.2 mg/dL
  RALB: 3.4 g/dL
  TBIL: 0.092 mg/dL
  TC: 59.4 mg/dL
  TG: 11 mg/dL
  TP: 5.6 g/dL
  gamma-GTP: 0.8 IU/L
[8]
  TERMINAL_BW: 210.7 g
  APTT: 32.6 s
  Bas: 0%
  Eos: 0.8%
  Fbg: 223 mg/dL
  Hb: 14.7 g/dL
  Ht: 39.8%
  Lym: 69.2%
  MCH: 22 pg
  MCHC: 37%
  MCV: 59.4 fL
  Mono: 2.6%
  Neu: 26.4%
  Plat: 125.8 x10_4/uL
  RBC: 669.4 x10_4/ul
  Ret: 7.5%
  WBC: 56.2 x10_2/uL
  KIDNEY_L: 0.9 g
  KIDNEY_R: 0.9 g
  KIDNEY_TOTAL: 1.9 g
  LIVER: 7 g
  ALP: 912.4 IU/L
  ALT: 30 IU/L
  AST: 138.6 IU/L
  BUN: 14.6 mg/dL
  CRE: 0.4 mg/dL
  Ca: 7 mg/dL
  Cl: 104 meq/L
  DBIL: 0.048 mg/dL
  GLC: 230.6 mg/dL
  IP: 6.3 mg/dL
  K: 3.1 meq/L
  LDH: 232.4 IU/L
  Na: 138.4 meq/L
  PL: 81.6 mg/dL
  RALB: 3.5 g/dL
  TBIL: 0.092 mg/dL
  TC: 44.4 mg/dL
  TG: 24.8 mg/dL
  TP: 5.7 g/dL
  gamma-GTP: 1.4 IU/L
